Here are results for 26 substances from patent publication US9580487B2, “Method of treating stomach or bowel-related disorders by administering glucagon-like-peptide-2 (GLP-2) analogues” (Zealand Pharma A/S, priority 2005, dated 2017).

The test relates to male C57BL mice. Description: Screening for intestinal growth effects (small intestine and colon mass relative to body weight, small intestine-colon sensitivity index). To be noted: for Preferential growth of small intestine versus colon (small intestine-colon sensitivity): relative to [Gly2]GLP-2; for colon mass relative to body weight, % [Gly2]GLP-2 / small intestine-colon sensitivity index, (SI/Colon)X/(SI/Colon)[Gly2]GLP-2 %: male C57BL mice, 30 nmol/kg s.c. twice daily for ten days; for small intestine-colon sensitivity index, (SI/Colon)X/(SI/Colon)[Gly2]GLP-2 %: third value column. It is filed as in vivo. The procedure:
The ability of the present compounds to stimulate intestinal growth was determined in male C57BL mice. Individual groups (n=6) of mice were given 30 nmol/kg of each compound, s.c, twice daily for ten consecutive days. For comparison purposes other groups of animals were given either an equimolar dose of [Gly2]GLP-2 (SEQ ID NO:54) or vehicle (phosphate buffered saline, pH 7.4) in the same dosing regimen. Twenty-four hours after the last dose of compound had been given the mice were sacrificed and the small intestine (from the pylorus to the cecum) and the colon (intestine distal to cecum) was emptied and weighed. To correct for slight difference in body weight (BW), the organ mass of the small intestine (SI) and colon were expressed relative to BW. The non-selective reference compound [Gly2]GLP-2 (SEQ ID NO:54) has been reported to stimulate gastrointestinal growth in both esophagus, stomach, small intestine and colon and to evaluate differences in growth pattern induced by compounds, the small intestine-colon sensitivity index of compound X was calculated as:
(SI/Colon)X/(SI/Colon)[Gly2]GLP-2%
Compounds with a small intestine-colon sensitivity greater than or equal to 1.05 were considered relatively selective for the small intestine (Table 15).
Compounds with a small intestine-colon sensitivity smaller than or equal to 0.95 were considered relatively selective for the colon (Table 15).

[1] abbreviates: 30 nmol/kg s.c. twice daily, ten days.

Entries after “also recorded” stand apart in the source; their conditions may differ. No end group written: not given here.

Turning to “[Gly2, Glu3, Leu10, Lys11, Ala16,24,28]hGLP-2(1-33)-(Lys)6-NH2 (HGEGSFSDELKTILDALAARDFIAWLIATKITDKKKKKK-NH2) [Compound 1850]”, the “colon mass relative to body weight, % [Gly2]GLP-2” value was 89 % [Gly2]GLP-2 and the “small intestine-colon sensitivity index, (SI/Colon)X/(SI/Colon)[Gly2]GLP-2 %” value was found to be 116 % [Gly2]GLP-2. The “Preferential growth of small intestine versus colon (small intestine-colon sensitivity)” value under setting [1] is “preferentially stimulating epithelial growth in the small intestine”.

As to “[Gly2, Glu3, Leu10, Lys11, Ala16,24,28]hGLP-2(1-33)-NH2 (HGEGSFSDELKTILDALAARDFIAWLIATKITD-NH2) [Compound 1859]”, the “colon mass relative to body weight, % [Gly2]GLP-2” value stood at 73 % [Gly2]GLP-2 and the “small intestine-colon sensitivity index, (SI/Colon)X/(SI/Colon)[Gly2]GLP-2 %” value came out at 114 % [Gly2]GLP-2. Moreover, the “Preferential growth of small intestine versus colon (small intestine-colon sensitivity)” value under setting [1] is reported as “preferentially stimulating epithelial growth in the small intestine”.

For “[Gly2, Glu3, Thr5, Leu10, Ala11,16,24,28]hGLP-2-(Lys)6-NH2 (HGEGTFSDELATILDALAARDFIAWLIATKITDKKKKKK-NH2) [Compound 1809]”, where the note is “30 nmol/kg s.c. twice daily, ten days, equimolar [Gly2]GLP-2”, the “Small intestine mass relative to [Gly2]GLP-2” value was “significant increase in the weight of the small intestine”. Besides, under setting [1], the “Preferential growth of small intestine versus colon (small intestine-colon sensitivity)” value was “preferentially stimulating epithelial growth in the small intestine”.

For “[Gly2, Glu3, Thr5, Leu10, Lys11, Ala16,24,28]hGLP-2(1-33)-(Lys)6-NH2 (HGEGTFSDELKTILDALAARDFIAWLIATKITDKKKKKK-NH2) [Compound 1851]”, the “colon mass relative to body weight, % [Gly2]GLP-2” value came to 96 % [Gly2]GLP-2 and the “small intestine-colon sensitivity index, (SI/Colon)X/(SI/Colon)[Gly2]GLP-2 %” value was found to be 114 % [Gly2]GLP-2. For the same substance, the “Preferential growth of small intestine versus colon (small intestine-colon sensitivity)” value under setting [1] is given as “preferentially stimulating epithelial growth in the small intestine”.

With “[Gly2, Glu3, Thr5, Leu10, Ser11, Ala16,24,28]hGLP-2(1-33)-(Lys)6-NH2 (HGEGTFSDELSTILDALAARDFIAWLIATKITDKKKKKK-NH2) [Compound 1845]”, the “colon mass relative to body weight, % [Gly2]GLP-2” value is 98 % [Gly2]GLP-2 and the “small intestine-colon sensitivity index, (SI/Colon)X/(SI/Colon)[Gly2]GLP-2 %” value stood at 107 % [Gly2]GLP-2. Moreover, the “Preferential growth of small intestine versus colon (small intestine-colon sensitivity)” value under setting [1] is “preferentially stimulating epithelial growth in the small intestine”.

As to “[Gly2, Glu3, Thr5, Leu10, Ser11, Ala16,24,28]hGLP-2(1-33)-NH2 (HGEGTFSDELSTILDALAARDFIAWLIATKITD-NH2) [Compound 1854]”, the “Preferential growth of small intestine versus colon (small intestine-colon sensitivity)” value under setting [1] is listed as “without preferential growth in small intestine or colon”.

For the substance “[Gly2, Glu3, Thr5, Ser8,11, Leu10, Ala16,24,28]hGLP-2(1-33)-(Lys)6-NH2 (HGEGTFSSELSTILDALAARDFIAWLIATKITDKKKKKK-NH2) [Compound 1844]”, the “colon mass relative to body weight, % [Gly2]GLP-2” value is 89 % [Gly2]GLP-2 and the “small intestine-colon sensitivity index, (SI/Colon)X/(SI/Colon)[Gly2]GLP-2 %” value was 119 % [Gly2]GLP-2. For the same substance, the “Preferential growth of small intestine versus colon (small intestine-colon sensitivity)” value under setting [1] is given as “supplementary increase in the weight of the small intestine without significant effecting the weight of the colon; also recorded: preferentially stimulating epithelial growth in the small intestine”.

Turning to “[Gly2, Glu3, Thr5, Ser8,11, Leu10, Ala16,24,28]hGLP-2(1-33)-NH2 (HGEGTFSSELSTILDALAARDFIAWLIATKITD-NH2) [Compound 1853]”, the “colon mass relative to body weight, % [Gly2]GLP-2” value is 96 % [Gly2]GLP-2 and the “small intestine-colon sensitivity index, (SI/Colon)X/(SI/Colon)[Gly2]GLP-2 %” value was 105 % [Gly2]GLP-2. Besides, the “Preferential growth of small intestine versus colon (small intestine-colon sensitivity)” value under setting [1] was “supplementary increase in the weight of the small intestine without significant effecting the weight of the colon; also recorded: preferentially stimulating epithelial growth in the small intestine”.

For the substance “[Gly2, Glu3, Thr5, Ser8, Leu10, Lys11, Ala16,24,28]hGLP-2(1-33)-NH2 [Compound 1852]”, the “colon mass relative to body weight, % [Gly2]GLP-2” value is 97 % [Gly2]GLP-2 and the “small intestine-colon sensitivity index, (SI/Colon)X/(SI/Colon)[Gly2]GLP-2 %” value amounted to 109 % [Gly2]GLP-2. For the same substance, the “Preferential growth of small intestine versus colon (small intestine-colon sensitivity)” value under setting [1] is recorded as “supplementary increase in the weight of the small intestine without significant effecting the weight of the colon; also recorded: preferentially stimulating epithelial growth in the small intestine”.

On to “[Gly2, Leu10, Ala24]hGLP-2-K6-NH2 (HGDGSFSDELNTILDNLAARDFIAWLIQTKITDKKKKKK-NH2) [Compound 1826]”, for which the “Preferential growth of small intestine versus colon (small intestine-colon sensitivity)” value under setting [1] is listed as “preferentially stimulating epithelial growth in the small intestine”.

Consider “[Gly2, Leu10, Lys11, Ala24]hGLP-2(1-30)-K6-NH2 [Compound 1821]”, for which the “Preferential growth of small intestine versus colon (small intestine-colon sensitivity)” value under setting [1] was “without preferential growth in small intestine or colon”.

Take “[Gly2, Leu10, Lys11, Ala24]hGLP-2(1-30)-NH2 (HGDGSFSDELKTILDNLAARDFIAWLIQTK-NH2) [Compound 1835]”: the “colon mass relative to body weight, % [Gly2]GLP-2” value amounted to 105 % [Gly2]GLP-2 and the “small intestine-colon sensitivity index, (SI/Colon)X/(SI/Colon)[Gly2]GLP-2 %” value worked out at 91 % [Gly2]GLP-2. In addition, the “Preferential growth of small intestine versus colon (small intestine-colon sensitivity)” value under setting [1] is on record as “preferentially stimulating epithelial growth in the colon”.

Consider “[Gly2, Leu10, Ser8,11, Ala24]hGLP-2(1-30)-K6-NH2 [Compound 1829]”, for which the “Preferential growth of small intestine versus colon (small intestine-colon sensitivity)” value under setting [1] is listed as “without preferential growth in small intestine or colon”.

Consider “[Gly2, Leu10, Ser8,11, Ala24]hGLP-2(1-30)-NH2 (HGDGSFSSELSTILDNLAARDFIAWLIQTK-NH2) [Compound 1833]”, for which, under setting [1], the “Preferential growth of small intestine versus colon (small intestine-colon sensitivity)” value is “without preferential growth in small intestine or colon”.

For the substance “[Gly2, Leu10, Ser11, Ala24]hGLP-2(1-30)-K6-NH2 [Compound 1819]”, under setting [1], the “Preferential growth of small intestine versus colon (small intestine-colon sensitivity)” value is recorded as “preferentially stimulating epithelial growth in the small intestine”.

For the substance “[Gly2, Leu10, Ser11, Ala24]hGLP-2(1-30)-NH2 (HGDGSFSDELSTILDNLAARDFIAWLIQTK-NH2) [Compound 1830]”, the “colon mass relative to body weight, % [Gly2]GLP-2” value amounted to 106 % [Gly2]GLP-2 and the “small intestine-colon sensitivity index, (SI/Colon)X/(SI/Colon)[Gly2]GLP-2 %” value came out at 94 % [Gly2]GLP-2. Further, the “Preferential growth of small intestine versus colon (small intestine-colon sensitivity)” value under setting [1] is “preferentially stimulating epithelial growth in the colon”.

“[Gly2, Ser8, Leu10, Ala11,24]hGLP-2(1-30)-K6-NH2 [Compound 1818]”: under setting [1], the “Preferential growth of small intestine versus colon (small intestine-colon sensitivity)” value is “supplementary increase in the weight of the small intestine without significant effecting the weight of the colon; also recorded: preferentially stimulating epithelial growth in the small intestine”.

Consider “[Gly2, Ser8, Leu10, Ala11,24]hGLP-2(1-30)-NH2 (HGDGSFSSELATILDNLAARDFIAWLIQTK-NH2) [Compound 1825]”, for which the “Preferential growth of small intestine versus colon (small intestine-colon sensitivity)” value under setting [1] is on record as “without preferential growth in small intestine or colon”.

“[Gly2, Thr7, Leu10, Lys11, Ala24]hGLP-2(1-30)-K6-NH2 [Compound 1822]”: the “Preferential growth of small intestine versus colon (small intestine-colon sensitivity)” value under setting [1] is recorded as “without preferential growth in small intestine or colon”.

Turning to “[Gly2, Thr7, Leu10, Lys11, Ala24]hGLP-2(1-30)-NH2 (HGDGSFTDELKTILDNLAARDFIAWLIQTK-NH2) [Compound 1836]”, the “colon mass relative to body weight, % [Gly2]GLP-2” value was determined as 105 % [Gly2]GLP-2 and the “small intestine-colon sensitivity index, (SI/Colon)X/(SI/Colon)[Gly2]GLP-2 %” value was 90 % [Gly2]GLP-2. In addition, under setting [1], the “Preferential growth of small intestine versus colon (small intestine-colon sensitivity)” value was “preferentially stimulating epithelial growth in the colon”.

With “[Gly2, Thr7, Leu10, Ser8,11, Ala24]hGLP-2(1-30)-K6-NH2 [Compound 1828]”, the “Preferential growth of small intestine versus colon (small intestine-colon sensitivity)” value under setting [1] was “without preferential growth in small intestine or colon”.

Consider “[Gly2, Thr7, Leu10, Ser8,11, Ala24]hGLP-2(1-30)-NH2 (HGDGSFTSELSTILDNLAARDFIAWLIQTK-NH2) [Compound 1832]”, for which, under setting [1], the “Preferential growth of small intestine versus colon (small intestine-colon sensitivity)” value was “without preferential growth in small intestine or colon”.

On to “[Gly2, Thr7, Leu10, Ser11, Ala24]hGLP-2(1-30)-K6-NH2 [Compound 1827]”, for which the “Preferential growth of small intestine versus colon (small intestine-colon sensitivity)” value under setting [1] is on record as “preferentially stimulating epithelial growth in the small intestine”.

Regarding “[Gly2, Thr7, Leu10, Ser11, Ala24]hGLP-2(1-30)-NH2 (HGDGSFTDELSTILDNLAARDFIAWLIQTK-NH2) [Compound 1831]”, the “colon mass relative to body weight, % [Gly2]GLP-2” value came to 102 % [Gly2]GLP-2 and the “small intestine-colon sensitivity index, (SI/Colon)X/(SI/Colon)[Gly2]GLP-2 %” value was found to be 88 % [Gly2]GLP-2. Besides, under setting [1], the “Preferential growth of small intestine versus colon (small intestine-colon sensitivity)” value is “preferentially stimulating epithelial growth in the colon”.

With “[Gly2, Thr7, Ser8, Leu10, Lys11, Ala24]hGLP-2(1-30)-K6-NH2 [Compound 1823]”, under setting [1], the “Preferential growth of small intestine versus colon (small intestine-colon sensitivity)” value is “without preferential growth in small intestine or colon”.

Consider “[Leu10, Ala11, Ala24]hGLP-2 (1-30)-NH2 [Compound 1841]”, for which the “colon mass relative to body weight, % [Gly2]GLP-2” value turned out to be 126 % [Gly2]GLP-2 and the “small intestine-colon sensitivity index, (SI/Colon)X/(SI/Colon)[Gly2]GLP-2 %” value is 90 % [Gly2]GLP-2. Further, the “Preferential growth of small intestine versus colon (small intestine-colon sensitivity)” value under setting [1] is “preferentially stimulating epithelial growth in the colon”.
